{"source": "patent US11198687B2", "about": "“Heteroaryl allosteric modulators of nicotinic acetylcholine receptors” (Merck Sharp & Dohme Corp., priority 2017, dated 2021)", "target": "human α7 nAChR (Homo sapiens, UniProt P36544)", "sequence (P36544 23-502)": "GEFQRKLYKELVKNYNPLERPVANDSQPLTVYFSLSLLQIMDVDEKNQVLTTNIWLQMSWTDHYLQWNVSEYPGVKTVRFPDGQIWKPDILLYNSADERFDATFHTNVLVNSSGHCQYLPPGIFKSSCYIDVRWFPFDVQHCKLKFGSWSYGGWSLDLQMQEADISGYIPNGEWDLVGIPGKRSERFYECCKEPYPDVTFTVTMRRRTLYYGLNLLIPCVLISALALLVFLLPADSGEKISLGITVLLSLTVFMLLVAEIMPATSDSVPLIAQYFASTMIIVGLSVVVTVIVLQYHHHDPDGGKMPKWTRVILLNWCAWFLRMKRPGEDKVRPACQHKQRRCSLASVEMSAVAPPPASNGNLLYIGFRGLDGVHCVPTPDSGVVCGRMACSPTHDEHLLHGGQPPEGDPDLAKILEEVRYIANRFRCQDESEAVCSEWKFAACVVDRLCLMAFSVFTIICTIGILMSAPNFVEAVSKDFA", "experiment": "Automated patch-clamp electrophysiology functional assay (Assay A)", "assay_type": "cell-based", "settings": "IonFlux HT whole-cell population patch, HEK cell line stably expressing human RIC-3 and human α7, 40 μM acetylcholine", "method_in_brief": "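Whole-cell population patch clamp at room temperature on HEK cells stably expressing human α7 and RIC-3, held at −60 mV. Compounds tested at three ascending concentrations per recording, with or without 40 μM acetylcholine; currents quantified relative to an initial 1 s 40 μM acetylcholine response; EC50 from concentration series.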", "note": "Where two headings read alike, the source gives them in different places.", "data": [{"smiles": "CC1(C)[C@@H](c2ccc(S(N)(=O)=O)cn2)[C@@H]1c1nc(C2CCCC2)no1", "note": "[Example F3, 6-[(1S,3S)-3-(3-Cyclopentyl-1,2,4-oxadiazol-5-yl)-2,2-dimethylcyclopropyl]pyridine-3-sulfonamide]", "values": [{"measurement": "EC50", "setting": "read-out: α7 nAChR EC50", "result": 340, "unit": "nM"}, {"measurement": "EC50", "setting": "read-out: α7 nAChR Potency", "result": "100 to 500", "unit": "nM"}]}, {"smiles": "CC1(C)[C@@H](c2ccc(S(N)(=O)=O)nc2)[C@@H]1c1nc(-c2cncc(C(F)(F)F)c2)no1", "note": "[Example B4, 5-[(1S,3S)-2,2-Dimethyl-3-{3-[5-(trifluoromethyl)pyridin-3-yl]-1,2,4-oxadiazol-5-yl}cyclopropyl]pyridine-2-sulfonamide]", "values": [{"measurement": "EC50", "setting": "read-out: α7 nAChR EC50", "result": 2500, "unit": "nM"}, {"measurement": "EC50", "setting": "read-out: α7 nAChR Potency", "result": "500 to 5000", "unit": "nM"}]}, {"smiles": "CC1(C)[C@@H](c2ccc(S(N)(=O)=O)cn2)[C@@H]1c1nc(C2CCCCC2)no1", "note": "[Example 10, 6-[(1S,3S)-3-(3-Cyclohexyl-1,2,4-oxadiazol-5-yl)-2,2-dimethylcyclopropyl]pyridine-3-sulfonamide]", "values": [{"measurement": "EC50", "setting": "read-out: α7 nAChR EC50", "result": 480, "unit": "nM"}, {"measurement": "EC50", "setting": "read-out: α7 nAChR Potency", "result": "100 to 500", "unit": "nM"}]}, {"smiles": "CC1(C)[C@@H](c2ccc(S(N)(=O)=O)cn2)[C@@H]1c1nc(-c2cccc(F)c2)no1", "note": "[Example F1, 6-{(1S,3S)-3-[3-(3-Fluorophenyl)-1,2,4-oxadiazol-5-yl]-2,2-dimethylcyclopropyl}pyridine-3-sulfonamide]", "values": [{"measurement": "EC50", "setting": "read-out: α7 nAChR EC50", "result": 1100, "unit": "nM"}, {"measurement": "EC50", "setting": "read-out: α7 nAChR Potency", "result": "500 to 5000", "unit": "nM"}]}, {"smiles": "CC1(C)[C@@H](c2ccc(S(N)(=O)=O)cn2)[C@@H]1c1nc(C2CC(F)(F)C2)no1", "note": "(racemic) [Example G5, 6-{trans-3-[3-(3,3-Difluorocyclobutyl)-1,2,4-oxadiazol-5-yl]-2,2-dimethylcyclopropyl}pyridine-3-sulfonamide]", "values": [{"measurement": "EC50", "setting": "read-out: α7 nAChR EC50", "result": 3600, "unit": "nM"}, {"measurement": "EC50", "setting": "read-out: α7 nAChR Potency", "result": "500 to 5000", "unit": "nM"}]}, {"smiles": "CC1(C)[C@@H](c2ccc(S(N)(=O)=O)nc2)[C@@H]1c1nc(-c2cccc(F)c2)no1", "note": "[Example B1, 5-{(1S,3S)-3-[3-(3-Fluorophenyl)-1,2,4-oxadiazol-5-yl]-2,2-dimethylcyclopropyl}pyridine-2-sulfonamide]", "values": [{"measurement": "EC50", "setting": "read-out: α7 nAChR EC50", "result": 310, "unit": "nM"}, {"measurement": "EC50", "setting": "read-out: α7 nAChR Potency", "result": "100 to 500", "unit": "nM"}]}, {"smiles": "CC1(C)[C@H](c2ccc(S(N)(=O)=O)nc2)[C@H]1c1ncc(C2CCCC2)s1", "note": "[Example 9, 5-[(1R,3R)-3-(5-Cyclopentyl-1,3-thiazol-2-yl)-2,2-dimethylcyclopropyl]pyridine-2-sulfonamide]", "values": [{"measurement": "EC50", "setting": "read-out: α7 nAChR EC50", "result": 720, "unit": "nM"}, {"measurement": "EC50", "setting": "read-out: α7 nAChR Potency", "result": "500 to 5000", "unit": "nM"}]}, {"smiles": "CC1(C)[C@@H](c2ccc(S(N)(=O)=O)cn2)[C@@H]1c1nc(-c2ccc(F)cc2F)no1", "note": "[Example F5, 6-{(1S,3S)-3-[3-(2,4-Difluorophenyl)-1,2,4-oxadiazol-5-yl]-2,2-dimethylcyclopropyl}pyridine-3-sulfonamide]", "values": [{"measurement": "EC50", "setting": "read-out: α7 nAChR EC50", "result": 1700, "unit": "nM"}, {"measurement": "EC50", "setting": "read-out: α7 nAChR Potency", "result": "500 to 5000", "unit": "nM"}]}, {"smiles": "CC1(C)[C@@H](c2ccc(S(N)(=O)=O)nc2)[C@@H]1c1noc(C2(C(F)(F)F)CC2)n1", "note": "(racemic) [Example C11, 5-(trans-2,2-Dimethyl-3-{5-[1-(trifluoromethyl)cyclopropyl]-1,2,4-oxadiazol-3-yl}cyclopropyl)pyridine-2-sulfonamide]", "values": [{"measurement": "EC50", "setting": "read-out: α7 nAChR EC50", "result": 1500, "unit": "nM"}, {"measurement": "EC50", "setting": "read-out: α7 nAChR Potency", "result": "500 to 5000", "unit": "nM"}]}, {"smiles": "CC1(C)[C@H](c2ccc(S(N)(=O)=O)nc2)[C@H]1c1ncc(-c2ccccc2)o1", "note": "[Example A15, 5-[(1R,3R)-2,2-Dimethyl-3-(5-phenyl-1,3-oxazol-2-yl)cyclopropyl]pyridine-2-sulfonamide]", "values": [{"measurement": "EC50", "setting": "read-out: α7 nAChR EC50", "result": 1600, "unit": "nM"}, {"measurement": "EC50", "setting": "read-out: α7 nAChR Potency", "result": "500 to 5000", "unit": "nM"}]}, {"smiles": "NS(=O)(=O)c1ccc(C2CC2c2nc(-c3ccccc3)no2)cn1", "note": "(single isomer, unassigned) [Example 4, 5-[trans-2-(3-Phenyl-1,2,4-oxadiazol-5-yl)cyclopropyl]pyridine-2-sulfonamide]", "values": [{"measurement": "EC50", "setting": "read-out: α7 nAChR EC50", "result": 400, "unit": "nM"}, {"measurement": "EC50", "setting": "read-out: α7 nAChR Potency", "result": "100 to 500", "unit": "nM"}]}, {"smiles": "CC1(C)[C@@H](c2ccc(S(N)(=O)=O)cn2)[C@@H]1c1nc(C2CCC2)no1", "note": "[Example F13, 6-[(1S,3S)-3-(3-Cyclobutyl-1,2,4-oxadiazol-5-yl)-2,2-dimethylcyclopropyl]pyridine-3-sulfonamide]", "values": [{"measurement": "EC50", "setting": "read-out: α7 nAChR Potency", "result": "500 to 5000", "unit": "nM"}]}, {"smiles": "CC1(C)[C@@H](c2ccc(S(N)(=O)=O)cn2)[C@@H]1c1nc(CC2CC2)no1", "note": "[Example F7, 6-{(1S,3S)-3-[3-(Cyclopropylmethyl)-1,2,4-oxadiazol-5-yl]-2,2-dimethylcyclopropyl}pyridine-3-sulfonamide]", "values": [{"measurement": "EC50", "setting": "read-out: α7 nAChR EC50", "result": 1500, "unit": "nM"}, {"measurement": "EC50", "setting": "read-out: α7 nAChR Potency", "result": "500 to 5000", "unit": "nM"}]}, {"smiles": "CC1(C)[C@@H](c2ccc(S(N)(=O)=O)nc2)[C@@H]1c1nc2ccccc2o1", "note": "(relative stereo) [Example C7, 5-[trans-3-(1,3-Benzoxazol-2-yl)-2,2-dimethylcyclopropyl]pyridine-2-sulfonamide]", "values": [{"measurement": "EC50", "setting": "read-out: α7 nAChR EC50", "result": 1600, "unit": "nM"}, {"measurement": "EC50", "setting": "read-out: α7 nAChR Potency", "result": "500 to 5000", "unit": "nM"}]}, {"smiles": "NS(=O)(=O)c1ccc([C@@H]2C[C@H]2c2nc(C3CCCC3)no2)nc1", "note": "(racemic) [Example G7, 6-[trans-2-(3-Cyclopentyl-1,2,4-oxadiazol-5-yl)cyclopropyl]pyridine-3-sulfonamide]", "values": [{"measurement": "EC50", "setting": "read-out: α7 nAChR EC50", "result": 3000, "unit": "nM"}, {"measurement": "EC50", "setting": "read-out: α7 nAChR Potency", "result": "500 to 5000", "unit": "nM"}]}, {"smiles": "CC1(C)[C@@H](c2ccc(S(N)(=O)=O)nc2)[C@@H]1c1nc(CC2CC2)no1", "note": "[Example B10, 5-{(1S,3S)-3-[3-(Cyclopropylmethyl)-1,2,4-oxadiazol-5-yl]-2,2-dimethylcyclopropyl}pyridine-2-sulfonamide]", "values": [{"measurement": "EC50", "setting": "read-out: α7 nAChR EC50", "result": 1600, "unit": "nM"}, {"measurement": "EC50", "setting": "read-out: α7 nAChR Potency", "result": "500 to 5000", "unit": "nM"}]}, {"smiles": "CC(C)c1noc([C@@H]2[C@@H](c3ccc(S(N)(=O)=O)nc3)C2(C)C)n1", "note": "[Example A14, 5-{(1R,3R)-2,2-Dimethyl-3-[3-(propan-2-yl)-1,2,4-oxadiazol-5-yl]cyclopropyl}pyridine-2-sulfonamide]", "values": [{"measurement": "EC50", "setting": "read-out: α7 nAChR EC50", "result": 570, "unit": "nM"}, {"measurement": "EC50", "setting": "read-out: α7 nAChR Potency", "result": "500 to 5000", "unit": "nM"}]}, {"smiles": "CC1(C)[C@H](c2ccc(S(N)(=O)=O)cn2)[C@H]1c1nc(-c2cccc(F)c2)no1", "note": "[Example E1, 6-{(1R,3R)-3-[3-(3-Fluorophenyl)-1,2,4-oxadiazol-5-yl]-2,2-dimethylcyclopropyl}pyridine-3-sulfonamide]", "values": [{"measurement": "EC50", "setting": "read-out: α7 nAChR EC50", "result": 4000, "unit": "nM"}, {"measurement": "EC50", "setting": "read-out: α7 nAChR Potency", "result": "500 to 5000", "unit": "nM"}]}, {"smiles": "CC1(C)[C@@H](c2ccc(S(N)(=O)=O)nc2)[C@@H]1c1noc(C2CCCC2)n1", "note": "(racemic) [Example C2, 5-[trans-3-(5-Cyclopentyl-1,2,4-oxadiazol-3-yl)-2,2-dimethylcyclopropyl]pyridine-2-sulfonamide]", "values": [{"measurement": "EC50", "setting": "read-out: α7 nAChR EC50", "result": 920, "unit": "nM"}, {"measurement": "EC50", "setting": "read-out: α7 nAChR Potency", "result": "500 to 5000", "unit": "nM"}]}]}
